In patent US7846910B2, “Pharmaceutical composition, composition for screening therapeutics preventing and treating beta amyloid accumulation in brain comprising GCP II (glutamate carboxypeptidase II) as an active ingredient and method for screening using the same” (Korea Center for Disease Control and Prevention, priority 2005, dated 2010):

How the values were obtained:
Aβ40 and Aβ42 = test: Aβ yield in cerebral cortex of mice treated with GCP-II inhibitor (ELISA); type: in vivo; conditions: transgenic mouse (APP Swedish/presenilin delta 9), 10 mg/kg into visceral cavity twice a week, 30 days, PBS control
Description: (§1) To conform whether GCP-II can actually degrade over-expressing Aβ in vivo, the present inventors investigated Aβ degradation capacity by GCP-II inhibitor in a transgenic mouse over-expressing these Aβ. Concretely, after prepared genetically Aβover-expressing dementia model mouse (APP Swdish/presenilin delta 9 deltion, 12 weeks, The Hackson Laboratory, USA), injected into visceral cavity twice in a week, dosage of 10 mg/kg, 30 days. At this time, PBS used as a control. After finally injected GCP-II inhibitor, cerebral cortex, hippocampus and cerebellum in mouse brain was dissected and measured their weight respectively using microblance. And then, the above tissues were incubated in 6 M guanidine-hydrochrolide solution, room temperature, 4 hours and obtained supernatant by centrifugation after added iced PBS at 1/10 ratio. […] Then treated HRP (horseradish peroxidase) tagging secondly actibody, the above reactant was measured absorbance at 450 nm wavelength after treated stained using TMB (tetramethylbensidine). To conform whether GCP-II inhibitor was treated correctly, a part of the above mouse brain tissue were dissected and detected GCP-II activaty. […] In this manner, isolated sample were measured GCP-II activity using isotope meter.

GCP-II = biological target: T1, GCP-II (Mus musculus, UniProt O35409); test: GCP-II activity in brain tissue of mice treated with GCP-II inhibitor (3H-NAAG); type: in vivo; conditions: 10 mg/kg twice a week, 30 days
T1 construct: the cell membrane layer existed GCP-II was isolated from the mouse brain tissue; from tissue; host or cells: Brain membrane fraction of wild-type and APP Swedish/presenilin delta-9 transgenic mice
Description: as §1

synthetic Aβ40 or Aβ42 = test: Aβ degradation in HEK293 cells over-expressing GCP-II (ELISA of remaining Aβ in medium); type: cell-based, human
Description: To investigate the Aβ degradation by GCP-II, synthetic Aβ40 (FIG. 1A) or Aβ42 (FIG. 1B) was added to the cell culture solution containing HEK293 cells over-expressing GCP-II and HEK293 cells over-expressing NEP and IDE which are known as Aβ degrading enzymes. After reaction, the level of Aβ in the medium was measured by ELISA.
To measure the level of Aβ degradation by GCP-II, 2 ng/uL of synthetic Aβ40 or Aβ42 (Biosource international INC.) was added to HEK293 cell culture medium. Twenty hours later, the remaining Aβ in the medium was quantified by ELISA kit (Biosource international INC.).
HEK293 cells (human embryonic kidney cells) over-expressing GCP-II were temporarily transfected with GCP-II expression vector ‘pHA-GCPII’ or ‘pmyc-GCPII’ prepared in the above Example <1-1>, by using a transfection reagent (Lipofectamine Plus™ Reagent, Invitrogen, USA). The HEK293 cells with the temporary insertion of GCP-II were cultured in DMEM (Dulbecco's modified Eagle's medium) supplemented with 10% FBS (fetal bovine serum), 100 IU/ml of penicillin and 100[…]/ml of streptomycin. Cell lysate was obtained from the HEK293 cells by using RIPA buffer containing a protease inhibitor (aprotinin, leupeptin or phenylmethyl sulfonyl fluoride), and GCP-II protein was separated with 8% SDS-PAGE to examine the expression of GCP-II.
HEK293 cells transfected with NEP and IDE plasmids were used as a positive control and the cells transfected with mock vector were used as a negative control. The expressions of human GCP-II and NEP in the transfected HEK293 cells were investigated by Western blot analysis using anti-GCP-II antibody (MAB544B, Maine Biotechnology) or anti-NEP antibody (L-CD10-270, Novocastra) respectively (FIG. 1C).

Aβ40 = test: Aβ degradation in primary cortical cells over-expressing GCP-II by lenti-virus (ELISA); type: cell-based, rat; conditions: infected by 10, 20 and 50 MOI for three days, Aβ40 added for 20 hours
Excerpt: To investigate whether Aβ degradation effect of GCP-II was still observed in cortical cells or not, GCP-II was over-expressed in primary cortical cells by using lenti-virus, and then the level of Aβ degradation was investigated.
To investigate whether the expression of GCP-II can degrade Aβ in cortical cells, GCP-II was over-expressed in the primary cortical cells by using lenti-virus, followed by investigation of Aβ degradation (FIG. 2). The primary cortical cells were separated and cultured from E16 rats (Sprague-Dawley rats). To prevent non-neuronal cells, which took less than 10% in the culture cells, from spreading, the cells were transferred and further cultured in a 24 well plate (1×10^5 cells/well) containing 5-fluoro-2-deoxyuridine from the 3-6 days after the first culture. To prepare lenti-virus expressing GCP-II, GCP-II was inserted into pLentiH1.2 vector (named ‘pLentiH1.2-GCPII’, which was then introduced into 293T cells along with pLentiH1.2-GCP-II and packaging construct and envelope construct. Forty eight hours later, the concentration of the virus released in the medium was measured.
The primary cortical cells were infected with Lenti-GCP-II for three days, to which Aβ40 was added for 20 hours. Then, the level of Aβ remaining in the medium was measured by ELISA as explained in Example 1. […]

[1] = tested on: ACTH (adrenocorticotropic hormone); test: GCP-II substrate specificity, MALDI-TOF molecular weight analysis; type: biochemical; conditions: 37° C. for 15 hours
Description: (§2) To investigate whether GCP-II degrades Aβ specifically, GCP-II was reacted with amylin and ACTH (adrenocorticotropic hormone) or insulin β-chain at 37° C. for 15 hours, followed by measuring the molecular weight of each sample with a molecular weight analyzer (FIG. 7).

amylin = test: as above; type: biochemical; conditions: 37° C. for 15 hours
Description: as §2

insulin β-chain = test: as above; type: biochemical; conditions: 37° C. for 15 hours
Description: as §2

[2] = Enzyme activity (Km) of purified rGCP-II, [3H] glutamate release; type: biochemical; conditions: 0.002-2 μM substrate, 37° C.
Description: The enzyme activity of rGCP-II was saturated from 1.0 μM of N-acetyl-L-aspartyl-L-[3,4-^3H] and as a result, the Km value of rGCP-II was determined to be 0.5 μM.

endogenous Aβ42 = test: Degradation of endogenous Aβ from swAPP stable HEK293 cells by rGCP-II (ELISA); type: biochemical, human; conditions: #2 colony of swAPP stable cells, 0, 0.5, 2.5 and 10[…]/μL of rGCP-II
Excerpt: To investigate whether human GCP-II can actually degrade endogenous Aβ a cell line stably expressing ^swAPP (Swedish mutant APP) gene involved in the over-production of Aβ was constructed. For this construction, ^swAPP was introduced into HEK293 cells, followed by selection with G418. The recovered medium was reacted with rGCP-II protein and then Aβ remaining unreacted in the medium was quantified by ELISA (FIG. 8).
The concentration of Aβ42 and the expression level of APP were used as standards for the selection of ^swAPP stable cell colonies. […] As a result, the level of endogenous Aβ42 was decreased. From the above result, it was confirmed that rGCP-II is able to degrade physiologically generated (endogenous) Aβ alike (FIG. 8B).

[3] = tested on: Aβ monomer and oligomer (multimer); test: Degradation of Aβ monomer and multimer by rGCP-II (Western blotting); type: biochemical; conditions: Aβ matured for 7 days, reacted 20 hours, increasing GCP-II concentration
Description: Western blotting was performed using anti-Aβ antibody (6E10) more than 5 times (FIG. 9A) and the results were quantified by an image program (Image J program, NIH, USA) (FIG. 9B).

[4] = tested on: soluble Aβ40 and insoluble Aβ40; test: Degradation of soluble and insoluble Aβ from cerebral cortex by rGCP-II; type: biochemical
Description: The cerebral cortex was homogenized in 50 mM Tris-HCl (TBS) containing protease inhibitor cocktail (pH 7.6), followed by centrifugation at 4° C. with 100,000 g for 40 minutes. The supernatant was defined as a soluble fragment. The pellet was sonicated in 6 M guanidine-HCl solution containing protease inhibitor cocktail, which was defined as an insoluble fragment. The concentrations of each soluble Aβ and insoluble Aβ were measured.
The soluble Aβ or insoluble Aβ was co-cultured with rGCP-II.

[5] = GCP-II over-expressing HEK293 cells, compared with mock vector

T1 sequence (O35409 whole entry): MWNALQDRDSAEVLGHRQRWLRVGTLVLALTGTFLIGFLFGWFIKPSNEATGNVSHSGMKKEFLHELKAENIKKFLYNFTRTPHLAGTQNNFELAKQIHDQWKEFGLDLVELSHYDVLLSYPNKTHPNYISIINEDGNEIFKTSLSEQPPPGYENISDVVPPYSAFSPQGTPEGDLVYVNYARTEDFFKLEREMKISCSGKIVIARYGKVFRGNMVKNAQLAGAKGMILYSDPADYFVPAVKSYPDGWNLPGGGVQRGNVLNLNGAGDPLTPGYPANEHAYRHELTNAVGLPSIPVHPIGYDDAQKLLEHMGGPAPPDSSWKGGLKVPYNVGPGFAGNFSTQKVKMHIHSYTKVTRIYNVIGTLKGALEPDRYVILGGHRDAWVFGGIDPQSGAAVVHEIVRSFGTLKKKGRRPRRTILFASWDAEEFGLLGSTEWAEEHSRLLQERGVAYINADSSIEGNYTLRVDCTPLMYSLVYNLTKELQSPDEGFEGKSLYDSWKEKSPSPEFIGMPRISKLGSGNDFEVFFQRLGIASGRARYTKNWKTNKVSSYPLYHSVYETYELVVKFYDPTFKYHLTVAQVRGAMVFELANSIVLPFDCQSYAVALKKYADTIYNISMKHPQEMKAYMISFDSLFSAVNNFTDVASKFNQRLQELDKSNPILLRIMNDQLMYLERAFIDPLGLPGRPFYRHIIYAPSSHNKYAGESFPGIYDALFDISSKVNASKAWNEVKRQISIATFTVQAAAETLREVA

For O=C(O)CCC(CP(=O)(O)O)C(=O)O (stereo not shown) [2-PMPA], the “increase of yield of Aβ42 in cerebral cortex versus control” value (Aβ40 and Aβ42) was “about 30%”, the “yield of Aβ40 in cerebral cortex versus control” value (Aβ40 and Aβ42) was “no significantly difference” and the “reduction of GCP-II activity in brain” value (GCP-II; transgenic mouse) was “about 30%”. The “reduction of GCP-II activity in brain” value (GCP-II; wild type mouse) was “about 50%”.

For “GCP-II: transmembrane metalloproteinase glutamate carboxypeptidase II (SEQ. ID. NO: 2), over-expressed in cells from pHA-GCPII or pMyc-GCPII”, the “decrease of Aβ40 level in cell culture medium” value (synthetic Aβ40 or Aβ42; [5]) was 30%, the “decrease of Aβ42 level in cell culture medium” value (synthetic Aβ40 or Aβ42; [5]) was 30% and the “level of Aβ remaining in the culture medium” value (synthetic Aβ40 or Aβ42; HEK293 cells expressing GCP-II, 20 hours after addition of Aβ, compared with cells transfected with mock vector) was 60±5%. For the same molecule, the “Aβ reduction in primary cortical cells” value (Aβ40) was “more than 90%”, the “degradation of ACTH” value [1] was “not degraded” and the “degradation of amylin (MALDI-TOF peaks)” value (amylin) was “two peaks at 1500 and 2000”. The “degradation of insulin β-chain” value (insulin β-chain) was “not degraded”.

With “rGCP-II: recombinant GCP-II protein expressed in insect cells (Sf21) with baculovirus vector and purified on a Ni-chelating column” the Km [2] was 0.5 µM, the “level of endogenous Aβ42” value (endogenous Aβ42) was “decreased” and the “degradation of Aβ oligomer versus monomer” value [3] was “reduced faster than Aβ monomer”. The “reduction of insoluble Aβ40” value ([4]; insoluble fragment of cerebral cortex co-cultured with rGCP-II) was 35% and the “reduction of soluble Aβ40” value ([4]; soluble fragment of cerebral cortex co-cultured with rGCP-II) was 20%.
